{"source": "patent US9901649B2", "about": "“Block copolymers for therapeutic drug delivery” (INTERNATIONAL BUSINESS MACHINES CORPORATION, priority 2016, dated 2018)", "key": {"[1]": {"assay": "Mouse body weight change during the in vivo treatments", "set-up": "species or system female BALB/c nude mice", "conditions": "nude mice bearing BT-474 xenografts; DOX 5 mg/kg, tail vein injection at day 0, 3, 6 and 10", "method": "Female BALB/c nude mice were provided by Singapore Biological Research Center (BRC) at 6 weeks of age (20-22 g). All animal studies were adhered to protocols approved by the Singapore BRC's Institutional Animal Care and Use Committee. BT-474 cells (1×10^7) were suspended in 200 microliters of a solution containing Matrigel and PBS (volume ratio: 50/50) and subcutaneously injected into the right flank of female BALB/c nude mice. Estradiol pellet (0.72 mg/pellet, 60 days release) was subcutaneously administered into mice one day before the inoculation. Once the tumor volume reached about 200 mm^3 on the 14th day (recorded as day 0), the mice were randomly divided into 5 groups (7-8 animals per group): group 1 for 0.9% saline as control, group 2 for blank particles, group 3 for free DOX, group 4 for DOX-loaded particles LM-1, and group 5 for DOX-loaded particles LM-2. The dose of DOX in all formulations was 5 mg/kg. The formulations were given to mice via tail vein injection at day 0, 3, 6 and 10. At the predetermined time points, mice were weighed and tumor size was measured with a Vernier caliper. The tumor volume was calculated using the following formula: Tumor volume=length×width^2/2."}, "NCCFH-01 cells": {"tested_on": "NCCFH-01 cells", "assay": "In vitro cytotoxicity, MTT assay", "format": "cell-based", "conditions": "48 hours, 37° C., pH 7.4, read-out: half maximal inhibitory concentration IC50", "method": "BT-474 human breast cancer cell line was purchased from ATCC (Manassas, Va., U.S.A). Hereditary leiomyomastosis and renal cancer cells (NCCFH-01 cell line) was obtained from Dr. Min-Han Tan, Institute of Bioengineering and Nanotechnology, Singapore. Cells were cultured in RPMI-1640 medium containing 25 mM Hepes and L-Glutamine (Lonza, Singapore) supplemented with 10% fetal bovine serum (FBS), 100 U/mL penicillin and 100 μg/mL streptomycin at 37° C. in 5% CO2. 3-[4,5-Dimenthylthiazol-2-yl]-2,5-diphenyl tetrazolium bromide (MTT) was dissolved in phosphate-buffered saline (PBS, pH 7.4) with a concentration of 5 mg/mL, and the solution was filtered with a 0.22 micrometer filter to remove blue formazan crystals prior to usage.\nCytotoxicity of free DOX, DOX-loaded particles, and blank particles was determined through MTT assay. BT-474 cells and NCCFH-01 cells were seeded into 96-well plates at a density of 5×10^3 cells per well and incubated overnight in 100 microliters of RPMI-1640 containing 25 mM Hepes and L-Glutamine, supplemented with 10% FBS and 5% penicillin-streptomycin at 37 C, 5% CO2. […] After gentle agitation for 15 minutes, the absorbance of formazan crystals was taken to be that at 550 nm subtracted by that at 690 nm (TECAN, Switzerland). Cell viability was expressed as a percentage of absorbance of the control cells."}}, "data": [{"smiles": "COc1cccc2c1C(=O)c1c(O)c3c(c(O)c1C2=O)C[C@@](O)(C(=O)CO)C[C@@H]3O[C@H]1C[C@H](N)[C@H](O)[C@H](C)O1", "note": "[DOX, Doxorubicin]", "values": [{"measurement": "body weight loss", "setting": "[1]", "result": 20, "unit": "%"}, {"measurement": "IC50", "setting": "NCCFH-01 cells", "result": 12.7, "unit": "µg/mL"}]}]}
